{"source": "patent US12410152B2", "about": "“Oxazole and thioazole-type cullin ring ubiquitin ligase compounds and uses thereof” (Proxygen GmbH, priority 2019, dated 2025)", "key": {"CCNK and DDB1 [1]": {"target": "T1, CCNK and DDB1 (Homo sapiens, UniProt O75909+Q16531)", "T1 construct": "endogenous in cells; host or cells: KBM7 cells (lysate in A24, intact cells in A25)", "T1 sequence (O75909 whole entry)": "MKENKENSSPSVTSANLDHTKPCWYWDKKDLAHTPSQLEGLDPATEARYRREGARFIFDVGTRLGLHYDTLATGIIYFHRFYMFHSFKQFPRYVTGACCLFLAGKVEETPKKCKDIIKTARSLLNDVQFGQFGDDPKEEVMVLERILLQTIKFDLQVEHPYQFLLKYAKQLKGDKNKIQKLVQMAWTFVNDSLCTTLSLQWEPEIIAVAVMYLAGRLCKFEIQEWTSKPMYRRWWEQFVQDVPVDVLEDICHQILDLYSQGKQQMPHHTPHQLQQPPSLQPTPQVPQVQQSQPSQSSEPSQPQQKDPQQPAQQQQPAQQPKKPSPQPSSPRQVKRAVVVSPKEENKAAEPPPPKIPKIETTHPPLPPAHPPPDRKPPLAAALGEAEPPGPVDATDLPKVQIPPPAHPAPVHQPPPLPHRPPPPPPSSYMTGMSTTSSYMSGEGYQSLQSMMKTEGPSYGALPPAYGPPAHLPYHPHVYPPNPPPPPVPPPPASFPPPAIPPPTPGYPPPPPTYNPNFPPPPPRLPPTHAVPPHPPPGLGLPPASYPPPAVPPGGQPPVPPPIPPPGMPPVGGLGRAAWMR", "T1 sequence (Q16531 2-1140 limits assumed)": "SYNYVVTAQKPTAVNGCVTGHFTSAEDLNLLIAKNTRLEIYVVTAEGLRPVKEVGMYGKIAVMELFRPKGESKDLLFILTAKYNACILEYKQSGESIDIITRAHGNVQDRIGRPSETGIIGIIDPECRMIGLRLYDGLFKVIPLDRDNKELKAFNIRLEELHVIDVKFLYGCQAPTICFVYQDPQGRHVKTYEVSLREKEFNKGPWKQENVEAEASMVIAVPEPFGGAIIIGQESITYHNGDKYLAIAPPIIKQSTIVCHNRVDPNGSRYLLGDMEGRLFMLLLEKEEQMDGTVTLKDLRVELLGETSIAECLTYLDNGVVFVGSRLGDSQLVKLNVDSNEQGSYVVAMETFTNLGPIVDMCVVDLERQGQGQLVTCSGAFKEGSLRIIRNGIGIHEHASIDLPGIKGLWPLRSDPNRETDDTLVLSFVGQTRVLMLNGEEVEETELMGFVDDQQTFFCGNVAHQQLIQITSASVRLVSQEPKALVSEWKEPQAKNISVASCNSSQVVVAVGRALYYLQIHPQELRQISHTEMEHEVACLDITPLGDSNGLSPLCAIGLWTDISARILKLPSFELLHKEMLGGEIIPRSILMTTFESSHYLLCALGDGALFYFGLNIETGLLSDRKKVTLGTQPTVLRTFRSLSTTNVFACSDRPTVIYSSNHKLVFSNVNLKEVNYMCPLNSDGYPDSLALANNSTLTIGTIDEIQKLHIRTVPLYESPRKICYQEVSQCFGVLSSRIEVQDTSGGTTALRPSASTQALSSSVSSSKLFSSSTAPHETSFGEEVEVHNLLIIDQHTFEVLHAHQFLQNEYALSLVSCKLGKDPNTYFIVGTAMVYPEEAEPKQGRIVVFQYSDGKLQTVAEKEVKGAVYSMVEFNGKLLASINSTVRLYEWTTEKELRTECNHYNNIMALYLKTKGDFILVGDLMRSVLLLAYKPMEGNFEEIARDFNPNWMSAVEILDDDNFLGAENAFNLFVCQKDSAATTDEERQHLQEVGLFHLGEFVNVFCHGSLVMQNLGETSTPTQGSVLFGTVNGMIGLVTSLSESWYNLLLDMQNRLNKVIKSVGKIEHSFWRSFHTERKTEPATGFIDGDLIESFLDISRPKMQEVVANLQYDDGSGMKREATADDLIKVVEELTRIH", "T1 sequence (Q9NYV4 whole entry partner)": "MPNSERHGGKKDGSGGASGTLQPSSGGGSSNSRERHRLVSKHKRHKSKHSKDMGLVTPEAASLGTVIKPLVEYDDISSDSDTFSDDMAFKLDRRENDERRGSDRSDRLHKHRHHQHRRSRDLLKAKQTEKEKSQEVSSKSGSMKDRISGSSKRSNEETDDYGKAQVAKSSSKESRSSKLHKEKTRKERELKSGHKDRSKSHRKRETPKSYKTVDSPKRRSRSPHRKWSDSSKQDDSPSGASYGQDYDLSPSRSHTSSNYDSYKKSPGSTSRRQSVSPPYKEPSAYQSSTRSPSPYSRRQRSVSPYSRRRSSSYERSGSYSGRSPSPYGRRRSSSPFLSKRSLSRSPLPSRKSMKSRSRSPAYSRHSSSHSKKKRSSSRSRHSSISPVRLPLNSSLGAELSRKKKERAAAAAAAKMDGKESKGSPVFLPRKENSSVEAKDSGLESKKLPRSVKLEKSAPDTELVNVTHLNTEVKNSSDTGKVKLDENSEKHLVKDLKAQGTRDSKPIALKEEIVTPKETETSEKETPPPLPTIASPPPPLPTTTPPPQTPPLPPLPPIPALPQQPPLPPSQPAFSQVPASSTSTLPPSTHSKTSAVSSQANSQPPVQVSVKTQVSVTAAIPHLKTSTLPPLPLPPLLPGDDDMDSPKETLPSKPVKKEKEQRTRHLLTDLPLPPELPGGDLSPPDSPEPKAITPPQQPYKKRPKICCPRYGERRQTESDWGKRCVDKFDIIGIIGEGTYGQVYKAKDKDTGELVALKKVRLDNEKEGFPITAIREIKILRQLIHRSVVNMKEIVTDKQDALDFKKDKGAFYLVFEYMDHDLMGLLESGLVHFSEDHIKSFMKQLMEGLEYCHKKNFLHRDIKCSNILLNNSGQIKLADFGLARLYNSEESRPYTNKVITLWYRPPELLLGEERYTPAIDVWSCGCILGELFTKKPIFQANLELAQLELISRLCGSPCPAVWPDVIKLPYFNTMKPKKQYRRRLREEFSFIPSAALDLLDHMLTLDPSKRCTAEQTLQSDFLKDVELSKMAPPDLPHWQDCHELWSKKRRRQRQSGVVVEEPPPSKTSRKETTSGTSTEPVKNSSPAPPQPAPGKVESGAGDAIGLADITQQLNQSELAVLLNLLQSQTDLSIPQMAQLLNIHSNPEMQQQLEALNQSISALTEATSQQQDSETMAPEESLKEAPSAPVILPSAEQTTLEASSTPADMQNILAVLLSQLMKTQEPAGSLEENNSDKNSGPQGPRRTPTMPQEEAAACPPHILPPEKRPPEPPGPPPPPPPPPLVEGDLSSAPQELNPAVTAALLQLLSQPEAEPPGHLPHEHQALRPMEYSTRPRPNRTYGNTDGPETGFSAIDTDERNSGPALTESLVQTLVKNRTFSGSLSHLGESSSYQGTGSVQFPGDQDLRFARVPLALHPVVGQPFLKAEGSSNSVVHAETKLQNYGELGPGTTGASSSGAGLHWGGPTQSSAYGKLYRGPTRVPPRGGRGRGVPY", "assay": "Drug affinity chromatography with IC021313.2^NH2-coupled beads in KBM7 lysates", "assay_type": "binding", "conditions": "KBM7 whole cell lysates; competed by THZ531 100 μM", "description": "Regarding the first strategy, a variant of IC021313.2 associated with a free amine and named IC021313.2^NH2 allowed immobilizing IC021313.2^NH2 on sepharose beads, and purification of interacting proteins out of whole cell lysates (FIG. 20 a, b). […] Treating lysates with THZ531 and thus covalently blocking the active sites on CDK12/13 prevented DDB1 and CCNK enrichment via the IC021313.2^NH2 resin. This is in line with the fact that cellular co-treatment with THZ531 was able to abrogate drug-induced CCNK degradation (FIG. 19 d).\n100 μL NHS-Activated Sepharose 4 Fast Flow (GE Life Sciences, 17090601) per condition were washed with 500 μL DMSO 3 times (3 min 800 rpm centrifugation at RT). Beads were resuspended in 50 μL DMSO and 2.5 μL IC021313.2^NH2 10 mM and 0.75 μL TEA (Sigma-Aldrich, T0886) were added. […]\n200 million KBM7 cells were resuspended in 2 mL lysis buffer ([…] pH 7.5, 0.2% NP-40, 5% glycerol, 1.5 mM MgCl2, 100 mM NaCl, 1 mM EDTA) supplemented with protease inhibitors (Thermo Scientific, 78437) and benzonase (Merck, US170746-370746) and incubated on ice for 30 min. After centrifugation (full-speed, 4° C., 30 min) supernatant was transferred to a new tube and extracted protein measured with BCA (Fisher Scientific, 23225). […]"}, "CCNK and DDB1 [2]": {"target": "T1, CCNK and DDB1", "assay": "Photo-affinity probe (IC021313.2^PAP) pulldown in intact KBM7 cells", "assay_type": "binding", "conditions": "UV crosslink, competed by THZ531", "experimental": "Regarding the second strategy, an alternative method for drug-target enrichment that is based on cellular treatment with IC021313.2^PAP, a functionalized analog of IC021313.2 containing a photoactive diazirine moiety and an alkyne handle was performed (FIG. 20 d). Following cellular treatment with IC021313.2^PAP, cells were UV crosslinked, lysed and the alkyne handle in IC021313.2^PAP was biotinylated for subsequent immobilization on streptavidin beads and identification of drug-interacting proteins via immunoblots. […] Also in this setup, covalently saturating the CDK12/13 binding site with THZ-531 competed with IC021313.2^PAP enrichment (FIG. 20 e, f). Collectively, both strategies indicate simultaneous engagement of the destabilized CCNK and the CRL4 adaptor protein DDB1 in a CDK12/13-dependent manner.\nIC021313.2^NH2 was conjugated to a constant side chain consisting of a photosensitive diazirine group and an alkyne handle.\n20 million KBM7^WT cells per condition were pre-treated with either DMSO or 100 μM THZ531 (competition condition) for 1h in the presence of 10 μM carfilzomib (Selleckchem, S2853) in serum-free IMDM medium (3 ml/20 million cells/10 cm dish). Then, cells were treated with 10 μM IC020772.1^PAP for 1h. […] Eluates were analyzed by WB. Quantification was performed with ImageJ."}, "UBE2M mutant KBM7 cells": {"test_system": "UBE2M mutant KBM7 cells", "assay": "cells", "assay_type": "cell-based", "conditions": "KBM7 UBE2M mutant vs WT", "experimental": "KBM7 cells with the specified genetic backgrounds were grown in IMDM supplemented with 10% FBS and 1% penicillin/streptomycin (pen/strep). AsPC1, HCT116, NCI-H446 and 293T cells were grown in DMEM 10% FBS and 1% pen/strep. MV4; 11, Jurkat and Be (2) C cells were grown in RPMI 10% FBS 1% pen/strep. KBM7, AsPC1 and HCT116 cells expressing Cas9 were generated using the plasmid Lenti_Cas9_Blasti (Addgene #52962). The lentiviral plasmid lentiGuide-Puro (Addgene #52963) was used to express sgRNAs against the genes UBE2M (in KBM7-Cas9, AsPC1-Cas9 and HCT116-Cas9 cells), UBE2G1 (in KBM7-Cas9 cells) and […] (in KBM7-Cas9 cells). The lentiviral plasmid lentiGuide-Puro-IRES-mCherry (modified from Addgene #52963) was used to express sgRNAs against CUL4A (in KBM7-Cas9 cells). The lentiviral plasmid pLenti-PGK-Hygro-DEST-UBE2M was generated by Gateway cloning (empty destination vector Addgene #19066), and used to generate UBE2M^resc KBM7 cells. […]\nFollowing this observation, it was rationalized that novel small molecule degraders can be identified in an unbiased manner, simply by searching for compounds that lose activity in the absence of UBE2M. 2000 small molecules, mostly of unknown function/target, were tested for their antiproliferative effects in human leukemia cells (KBM7). These cells were either transduced with a control sgRNA (KBM7WT), or with an sgRNA targeting UBE2M, leading to a hypomorph (deletion of six amino acids) with a functional impairment (UBE2Mmut).\nFinally, a total of structurally similar analogs was tested to unravel structure-activity relationship of the identified molecules. To that end, their anti-cancer activity was assayed in WT cells, as well as KBM7 cells deficient in genes identified in the genome-wide CRISPR screens (UBE2M, CUL4B, UBE2G1). Moreover, the compounds were also tested in AsPC1 pancreatic cancer cells (WT or UBE2Mmut), MV4; 11 and Jurkat leukemia cells, Be (2) C neuroblastoma cells, and NCI-H446 lung cancer cells (Table 3 at the end of this document)\nKBM7^WT, mutant KBM7 clones (UBE2M^mut, UBE2M^resc, UBE2G1^mut CUL4A^mut, CUL4B^mut), and 3-day doxycycline pretreated KBM7^iCas9_sgDDB1 cells were seeded at a cell density of 50,000 cells/mL in 96-well plates with DMSO or drug, in triplicates. Drugs used: IC020772.1/IC020772.1X, IC021313.2/IC021313.2X, T6938051/T6938051X or THZ531. Cells were treated for 3 days, after which cell viability was assessed according to manufacturer's protocol (CellTiter Glo, Promega G7570). Survival curves and EC50 values were calculated by best-fit analysis of the log 10 drug concentration to fold change of drug-treated cells over DMSO-treated cells. All survival assays included technical triplicates per sample, per experiment."}, "DCAF15": {"target": "T2, DCAF15 (Homo sapiens, UniProt Q66K64)", "T2 construct": "expressed in transfected cells; host or cells: 293T cells, DCAF15 knocked out, additionally transduced with LgBit", "T2 sequence (Q66K64 whole entry)": "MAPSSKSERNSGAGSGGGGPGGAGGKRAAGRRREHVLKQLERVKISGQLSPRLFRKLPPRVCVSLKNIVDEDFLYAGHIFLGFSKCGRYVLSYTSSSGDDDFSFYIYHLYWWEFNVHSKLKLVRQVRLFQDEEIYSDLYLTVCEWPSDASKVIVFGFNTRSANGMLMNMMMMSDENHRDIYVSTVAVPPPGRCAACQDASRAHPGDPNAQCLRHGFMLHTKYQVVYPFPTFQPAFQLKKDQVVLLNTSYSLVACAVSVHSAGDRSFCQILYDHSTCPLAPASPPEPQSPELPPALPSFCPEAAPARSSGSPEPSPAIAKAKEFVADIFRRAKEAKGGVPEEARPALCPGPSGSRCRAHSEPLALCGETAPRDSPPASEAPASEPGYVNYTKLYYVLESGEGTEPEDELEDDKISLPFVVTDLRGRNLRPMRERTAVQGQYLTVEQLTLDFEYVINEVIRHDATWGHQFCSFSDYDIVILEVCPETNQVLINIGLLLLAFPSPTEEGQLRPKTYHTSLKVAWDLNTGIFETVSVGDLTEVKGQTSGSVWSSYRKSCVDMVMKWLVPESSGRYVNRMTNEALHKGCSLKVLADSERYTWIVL", "assay": "DCAF15 stabilization, live-cell HiBit/LgBit bioluminescence screen", "assay_type": "cell-based", "conditions": "10 μM, 293T cells expressing HiBit-DCAF15", "description": "Subsequently, in this context, the E3 ligase substrate receptor (SR) stabilization approach was employed in order to identify novel chemical matter that can bind and chemically re-program the substrate receptor DCAF15. To be able to screen a collection of around 8000 small-molecules, a cellular system was developed that enabled monitoring of DCAF15 levels in live cells in multi-well format. To that end, DCAF15 was first knocked out in 293T cells via CRISPR/Cas9 technology. Then, DCAF15 was stably expressed as a HiBit® fusion protein in these cells. After further transducing these cells with LgBit, this allowed live-cell tracing of DCAF15 levels in 384 well format by measuring bioluminescence (FIG. 13).\nIn brief, cells were seeded at a concentration of 250′000 cells/ml in DMEM+10% FCS+25 mM Hepes. The luciferase substrate Endurazine was added at concentrations recommended by the manufacturer. Small-molecules were added at a concentration of 10 μM, and their effect on DCAF15 levels was assayed by continuous bioluminescent imaging (measurements were taken every 120 minutes). In total, 8000 compounds were tested.\nThe known DCAF15 molecular glue indisulam was used as a positive control. In brief, indisulam is known to act as a DCAF15-dependent molecular glue that binds DCAF15 and induced proximity between DCAF15 and RBM39, leading to the degradation of the latter. […]"}, "RBM39": {"target": "T3, RBM39 (Homo sapiens, UniProt Q14498+Q66K64)", "T3 construct": "endogenous in cells; host or cells: KBM7 (WT or DCAF15 knockout) and 293T (DCAF15-HiBit or knockout)", "T3 sequence (Q14498 2-530 limits assumed)": "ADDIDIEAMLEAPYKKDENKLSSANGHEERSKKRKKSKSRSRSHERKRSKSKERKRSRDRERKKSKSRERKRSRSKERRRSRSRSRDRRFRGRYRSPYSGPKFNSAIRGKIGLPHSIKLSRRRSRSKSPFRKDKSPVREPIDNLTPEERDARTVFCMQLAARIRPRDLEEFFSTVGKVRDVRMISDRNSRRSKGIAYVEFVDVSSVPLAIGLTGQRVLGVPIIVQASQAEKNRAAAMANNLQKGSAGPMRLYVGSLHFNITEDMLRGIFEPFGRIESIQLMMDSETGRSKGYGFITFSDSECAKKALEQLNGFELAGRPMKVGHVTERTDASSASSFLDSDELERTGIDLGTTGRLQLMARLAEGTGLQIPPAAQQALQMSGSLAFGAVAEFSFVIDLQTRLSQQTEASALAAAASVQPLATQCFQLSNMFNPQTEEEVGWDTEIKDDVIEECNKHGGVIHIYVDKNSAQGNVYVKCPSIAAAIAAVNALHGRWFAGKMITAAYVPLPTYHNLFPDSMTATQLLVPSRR", "T3 sequence (Q66K64 whole entry)": "as the sequence (Q66K64 whole entry) above", "T3 sequence (Q16531 2-1140 partner limits assumed)": "as the sequence (Q16531 2-1140 limits assumed) above", "assay": "RBM39 levels by Western blot, WT vs DCAF15-deficient cells", "assay_type": "cell-based", "conditions": "KBM7 12 or 16 h (dCeMM-1); 293T 10 h (dCeMM-2)", "experimental": "The known DCAF15 molecular glue indisulam was used as a positive control. In brief, indisulam is known to act as a DCAF15-dependent molecular glue that binds DCAF15 and induced proximity between DCAF15 and RBM39, leading to the degradation of the latter. […] Given the structural similarity to indisulam, it was assayed if the two new test compounds would similarly lead to the degradation of RBM39 in a DCAF15-dependent manner. Towards that end, their effect on RBM39 levels in wildype cells as well as cells deficient for DCAF15 levels was tested. KBM7 (WT or knockout, FIG. 15) as well as 293T cells (DCAF15-HiBit overexpression vs knockout, see FIG. 16) were tested in various conditions of dCEMM.1 and/or dCEMM.2, comparing their effect to indisulam.\nPBS-washed cell pellets were lysed in 50 mM Tris pH 7.9, 8M Urea and 1% CHAPS and incubated with shaking at 4° C. for at least 30 min. 20 μg of supernatants were run and transferred for detection. […]"}, "[3]": {"test_system": "KBM7 cells (DCAF15 knockout)", "assay": "Cell viability, KBM7 DCAF15 knockout vs WT (72 hour treatment)", "assay_type": "cell-based, human", "experimental": "FIG. 18. (A) Cellular viability of KBM7 cells (WT or UBE2M mutant) after treatment with dCeMM.1. (72 hour treatment) (B) cellular viability of KBM7 cells (WT or DCAF15 knockout) after dose-ranging treatment with dCeMM.1 (72 hour treatment).\nIn another experiment, 2000 compounds were screened in a set up comparing their anti-proliferative effect in KBM7 cells modified in the UBE2M gene to wildtype KBM7 cells (FIG. 3). The PROTAC® ARV-771 was taken as positive control. Of note, among the identified hits was also dCeMM.1, which was similarly identified via the aforementioned DCAF15 restabilization assay."}}, "data": [{"compound": "Nc1ccc2[nH]c(SCC(=O)Nc3ccc(Cl)cn3)nc2c1", "note": "[IC021313.2^NH2]", "values": [{"measurement": "interacting proteins in bead pulldown (immunoblot)", "setting": "CCNK and DDB1 [1]", "result": "both CCNK and DDB1 as interacting proteins"}]}, {"compound": "C#CCCC1(CCC(=O)Nc2ccc3[nH]c(SCC(=O)Nc4ccc(Cl)cn4)nc3c2)N=N1", "note": "[IC021313.2^PAP]", "values": [{"measurement": "proteins enriched in photo-affinity pulldown (immunoblot)", "setting": "CCNK and DDB1 [2]", "result": "DDB1 and CCNK were enriched in the eluates"}]}, {"compound": "Cc1ccc(S(=O)(=O)N/N=C/c2cc(Br)ccc2O)cc1", "note": "[dCeMM.1]", "values": [{"measurement": "anti-proliferative effect upon mutation of UBE2M", "setting": "UBE2M mutant KBM7 cells", "result": "loses anti-proliferative activity"}, {"measurement": "DCAF15 stabilization (relative luciferase signal over time)", "setting": "DCAF15", "result": "significant DCAF15 stabilization"}, {"measurement": "RBM39 destabilization (Western blot), DCAF15-dependent", "setting": "RBM39", "result": "significant destabilization of RBM39 levels"}, {"measurement": "sensitivity upon inactivation of DCAF15", "setting": "[3]", "result": "pronounced resistance"}]}]}
